In the assay the target is T1, N-terminal GST tagged full length human TTK kinase (Homo sapiens, UniProt P33981).
T1 construct: N-terminal GST tagged full length human TTK kinase; GST (N); made in house; host or cells: insect cells
T1 sequence (P33981 1-857): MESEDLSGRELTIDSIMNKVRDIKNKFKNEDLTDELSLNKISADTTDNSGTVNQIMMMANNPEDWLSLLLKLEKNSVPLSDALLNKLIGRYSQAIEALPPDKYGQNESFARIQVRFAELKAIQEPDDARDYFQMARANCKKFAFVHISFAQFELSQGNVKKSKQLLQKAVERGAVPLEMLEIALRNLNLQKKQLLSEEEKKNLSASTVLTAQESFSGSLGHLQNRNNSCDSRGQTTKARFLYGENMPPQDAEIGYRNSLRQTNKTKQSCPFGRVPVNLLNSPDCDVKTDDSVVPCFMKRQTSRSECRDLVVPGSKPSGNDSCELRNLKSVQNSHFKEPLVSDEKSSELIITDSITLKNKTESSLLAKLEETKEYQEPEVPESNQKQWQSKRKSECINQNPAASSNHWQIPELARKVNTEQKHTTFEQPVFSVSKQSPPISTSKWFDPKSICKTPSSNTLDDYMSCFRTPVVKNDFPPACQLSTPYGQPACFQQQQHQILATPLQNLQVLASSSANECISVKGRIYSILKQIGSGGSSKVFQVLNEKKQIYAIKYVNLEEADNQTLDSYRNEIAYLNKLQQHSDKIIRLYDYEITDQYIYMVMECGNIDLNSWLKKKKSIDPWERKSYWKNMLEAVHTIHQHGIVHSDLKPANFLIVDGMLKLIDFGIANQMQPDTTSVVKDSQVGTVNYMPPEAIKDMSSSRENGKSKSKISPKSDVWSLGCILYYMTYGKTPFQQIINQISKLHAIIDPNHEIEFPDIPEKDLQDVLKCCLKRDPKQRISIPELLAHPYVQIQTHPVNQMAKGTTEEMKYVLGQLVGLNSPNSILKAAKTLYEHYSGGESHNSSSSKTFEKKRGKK
Description: In Vitro TTK Kinase Assay 2 (Caliper LabChip LC3000). The class given is biochemical. To be noted: recombinant TTK, 12 μM ATP, read-out: EAA2: Enzyme Assay Activity (In Vitro TTK kinase assay 2). The procedure:
Each reaction was stopped by the addition of EDTA to a concentration of 40 mM in a solution which also comprised 0.1% coating reagent (Caliper LS), 100 mM HEPES pH 7.5, 0.015% v/v Brij™-35 and 5% DMSO. The stopped enzyme reactions were sipped through capillaries onto a Caliper chip where the peptide substrate and phosphorylated product were separated and detected via laser-induced fluorescence.
As for `COc1cc(C(=O)NCCCCN(C)C)ccc1Nc1ncc2c(n1)n(C1CCCC1)c(=O)n2C` [Example 61, 4-[(9-Cyclopentyl-7-methyl-8-oxo-8,9-dihydro-7H-purin-2-yl)-amino]-N-[4-(dimethylamino)butyl]-3-methoxybenzamide], the IC50 was 53.6 nM.

On to `Cn1c(=O)n(C2CCCC2)c2nc(Nc3ccc(N4CCOCC4)cc3)ncc21` [Example 80, 9-Cyclopentyl-7-methyl-2-[(4-morpholin-4-ylphenyl)amino]-7,9-dihydro-8H-purin-8-one], for which the IC50 came to 140 nM.

With `COc1cc(C(=O)NCCN2CCN(C)CC2)ccc1Nc1ncc2c(n1)n(C1CCCC1)c(=O)n2C` [Example 64, 4-[(9-Cyclopentyl-7-methyl-8-oxo-8,9-dihydro-7H-purin-2-yl)-amino]-3-methoxy-N-[2-(4-methylpiperazin-1-yl)ethyl]benzamide], the IC50 was found to be 61.1 nM.

Take `Cn1c(=O)n(C2CCCC2)c2nc(Nc3ccc(-c4cnco4)cc3)ncc21` [Example 76, 9-Cyclopentyl-7-methyl-2-{[4-(1,3-oxazol-5-yl)phenyl]amino}-7,9-dihydro-8H-purin-8-one]: the IC50 turned out to be 18.3 nM.

As to `COc1cc(C(=O)NC2CCC(N(C)C)CC2)ccc1Nc1ncc2c(n1)n(C1CCCC1)c(=O)n2C` (stereo not shown) [Example 58], the IC50 is 136 nM.

On to `Cn1c(=O)n(C2CCCC2)c2nc(Nc3ccc(Cc4ccccc4)cc3)ncc21` [Example 78, 2-[(4-Benzylphenyl)amino]-9-cyclopentyl-7-methyl-7,9-dihydro-8H-purin-8-one], for which the IC50 was 195 nM.

For the compound `COc1cc(C(=O)N2CCC(N3CCCC3)CC2)ccc1Nc1ncc2c(n1)n(C1CCCC1)c(=O)n2C` [Example 56, 9-Cyclopentyl-2-({2-methoxy-4-[(4-pyrrolidin-1-ylpiperidin-1-yl)-carbonyl]phenyl}amino)-7-methyl-7,9-dihydro-8H-purin-8-one], the IC50 came to 67.6 nM.

Consider `CCN1CCN(c2ccc(Nc3ncc4c(n3)n(C(C)C)c(=O)n4C)c(OC)c2)CC1` [Example 45, 2-{[4-(4-Ethylpiperazin-1-yl)-2-methoxyphenyl]amino}-9-isopropyl-7-methyl-7,9-dihydro-8H-purin-8-one], for which the IC50 amounted to 109 nM.

In the case of `COc1cc(C(=O)NCCCn2ccnc2)ccc1Nc1ncc2c(n1)n(C1CCCC1)c(=O)n2C` [Example 52, 4-[(9-Cyclopentyl-7-methyl-8-oxo-8,9-dihydro-7H-purin-2-yl)-amino]-N-[3-(1H-imidazol-1-yl)propyl]-3-methoxybenzamide], the IC50 stood at 41.2 nM.

Consider `COc1cc(C(=O)N2CCN(C3CCN(C)CC3)CC2)ccc1Nc1ncc2c(n1)n(C1CCCC1)c(=O)n2C` [Example 51, 9-Cyclopentyl-2-[(2-methoxy-4-{[4-(1-methylpiperidin-4-yl)-piperazin-1-yl]-carbonyl}phenyl)amino]-7-methyl-7,9-dihydro-8H-purin-8-one], for which the IC50 came to 148 nM.

Consider `Cn1c(=O)n(C2CCCC2)c2nc(Nc3ccc(-n4cccn4)cc3)ncc21` [Example 79, 9-Cyclopentyl-7-methyl-2-{[4-(1H-pyrazol-1-yl)phenyl]amino}-7,9-dihydro-8H-purin-8-one], for which the IC50 was 45.2 nM.

Consider `CNC(=O)c1ccc(Nc2ncc3c(n2)n(C(C)C)c(=O)n3C)c(OC)c1` [Example 41, 4-[(9-Isopropyl-7-methyl-8-oxo-8,9-dihydro-7H-purin-2-yl)amino]-3-methoxy-N-methylbenzamide], for which the IC50 was found to be 7130 nM.

Take `COc1cc(OC2CCN(C)C2)ccc1Nc1ncc2c(n1)n(C(C)C)c(=O)n2C` (stereo not shown) [Example 43, 9-Isopropyl-2-({2-methoxy-4-[(1-methylpyrrolidin-3-yl)oxy]-phenyl}amino)-7-methyl-7,9-dihydro-8H-purin-8-one]: the IC50 stood at 115 nM.

Turning to `COc1cc(OC2CCN(C)CC2)ccc1Nc1ncc2c(n1)n(C(C)C)c(=O)n2C` [Example 42, 9-Isopropyl-2-({2-methoxy-4-[(1-methylpiperidin-4-yl)oxy]phenyl}-amino)-7-methyl-7,9-dihydro-8H-purin-8-one], the IC50 came to 68.8 nM.

Turning to `COc1cc(C(=O)N(C)CCCN(C)C)ccc1Nc1ncc2c(n1)n(C1CCCC1)c(=O)n2C` [Example 54, 4-[(9-Cyclopentyl-7-methyl-8-oxo-8,9-dihydro-7H-purin-2-yl)-amino]-N-[3-(dimethylamino)propyl]-3-methoxy-N-methylbenzamide], the IC50 came out at 36.2 nM.

In the case of `CC(C)Oc1ccc(Nc2ncc3c(n2)n(C2CCCC2)c(=O)n3C)cc1` [Example 74, 9-Cyclopentyl-2-[(4-isopropoxyphenyl)amino]-7-methyl-7,9-dihydro-8H-purin-8-one], the IC50 was determined as 29.1 nM.

For the compound `COc1cc(C(=O)NC2CCN(C)CC2)ccc1Nc1ncc2c(n1)n(C(C)C)c(=O)n2C` [Example 40, 4-[(9-Isopropyl-7-methyl-8-oxo-8,9-dihydro-7H-purin-2-yl)amino]-3-methoxy-N-(1-methylpiperidin-4-yl)benzamide], the IC50 was 338 nM.

With `COc1cc(N2CCCN(C)CC2)ccc1Nc1ncc2c(n1)n(C(C)C)c(=O)n2C` [Example 48, 9-Isopropyl-2-{[2-methoxy-4-(4-methyl-1,4-diazepan-1-yl)phenyl]-amino}-7-methyl-7,9-dihydro-8H-purin-8-one], the IC50 was 136 nM.

As for `COc1cc(C(=O)N2CCN(C)CC2)ccc1Nc1ncc2c(n1)n(C1CCCC1)c(=O)n2C` [Example 50, 9-Cyclopentyl-2-({2-methoxy-4-[(4-methylpiperazin-1-yl)carbonyl]-phenyl}amino)-7-methyl-7,9-dihydro-8H-purin-8-one], the IC50 was 60.3 nM.

As for `COCCN1CCN(C(=O)c2ccc(Nc3ncc4c(n3)n(C3CCCC3)c(=O)n4C)c(OC)c2)CC1` [Example 57, 9-Cyclopentyl-2-[(2-methoxy-4-{[4-(2-methoxyethyl)piperazin-1-yl]-carbonyl}phenyl)amino]-7-methyl-7,9-dihydro-8H-purin-8-one], the IC50 amounted to 35.6 nM.

Consider `COc1cc(C(=O)N[C@H]2CCNC2)ccc1Nc1ncc2c(n1)n(C1CCCC1)c(=O)n2C` [Example 69, 4-[(9-Cyclopentyl-7-methyl-8-oxo-8,9-dihydro-7H-purin-2-yl)-amino]-3-methoxy-N-[(3S)-pyrrolidin-3-yl]benzamide], for which the IC50 amounted to 41.3 nM.

As to `CCN1CCCC1CNC(=O)c1ccc(Nc2ncc3c(n2)n(C2CCCC2)c(=O)n3C)c(OC)c1` (stereo not shown) [Example 60, 4-[(9-Cyclopentyl-7-methyl-8-oxo-8,9-dihydro-7H-purin-2-yl)-amino]-N-[(1-ethylpyrrolidin-2-yl)methyl]-3-methoxybenzamide], the IC50 amounted to 114 nM.

Regarding `COc1cc(C(=O)NCCN2CCCCC2)ccc1Nc1ncc2c(n1)n(C1CCCC1)c(=O)n2C` [Example 63, 4-[(9-Cyclopentyl-7-methyl-8-oxo-8,9-dihydro-7H-purin-2-yl)-amino]-3-methoxy-N-(2-piperidin-1-ylethyl)benzamide], the IC50 amounted to 66.4 nM.

Take `COc1cc(N2CCN(C)CC2)ccc1Nc1ncc2c(n1)n(C(C)C)c(=O)n2C` [Example 44, 9-Isopropyl-2-{[2-methoxy-4-(4-methylpiperazin-1-yl)phenyl]-amino}-7-methyl-7,9-dihydro-8H-purin-8-one]: the IC50 amounted to 119 nM.

Regarding `COc1cc(C(=O)N2CC[C@@H](N(C)C)C2)ccc1Nc1ncc2c(n1)n(C1CCCC1)c(=O)n2C` [Example 55, 9-Cyclopentyl-2-[(4-{[(3R)-3-(dimethylamino)pyrrolidin-1-yl]-carbonyl}-2-methoxyphenyl)amino]-7-methyl-7,9-dihydro-8H-purin-8-one], the IC50 is 17.5 nM.

Regarding `Cn1c(=O)n(C2CCCC2)c2nc(Nc3ccc(Oc4ccccc4)cc3)ncc21` [Example 75, 9-Cyclopentyl-7-methyl-2-[(4-phenoxyphenyl)amino]-7,9-dihydro-8H-purin-8-one], the IC50 was determined as 523 nM.

On to `COc1cc(C(=O)NCCN(C)C)ccc1Nc1ncc2c(n1)n(C1CCCC1)c(=O)n2C` [Example 67, 4-[(9-Cyclopentyl-7-methyl-8-oxo-8,9-dihydro-7H-purin-2-yl)-amino]-N-[2-(dimethylamino)ethyl]-3-methoxybenzamide], for which the IC50 turned out to be 119 nM.

As to `COCCN1CCC(NC(=O)c2ccc(Nc3ncc4c(n3)n(C3CCCC3)c(=O)n4C)c(OC)c2)CC1` [Example 59, 4-[(9-Cyclopentyl-7-methyl-8-oxo-8,9-dihydro-7H-purin-2-yl)-amino]-3-methoxy-N-[1-(2-methoxyethyl)piperidin-4-yl]benzamide], the IC50 came to 74.5 nM.

The values are drawn from patent US20110118238A1, “2-ANILINOPURIN-8-ONES AS INHIBITORS OF TTK/MPS1 FOR THE TREATMENT OF PROLIFERATIVE DISORDERS” (ASTRAZENECA AB, priority 2007, published 2011).
